Measurements as given in PubChem BioAssay (NCI).
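Abbreviation: GI50, concentration required for 50% inhibition of growth. At the TGI there is no net growth.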

Key:
Assay in all cases: NCI anticancer screen, dose series, 384-well format
786-0 renal = test system: 786-0 renal
A498 renal = test system: A498 renal
A549 NSCLC = test system: A549 NSCLC
ACHN renal = test system: ACHN renal
BT-549 breast = test system: BT-549 breast
CAKI-1 renal = test system: CAKI-1 renal
CCRF-CEM leukemia = test system: CCRF-CEM leukemia
COLO 205 colon = test system: COLO 205 colon
DU-145 prostate = test system: DU-145 prostate
EKVX NSCLC = test system: EKVX NSCLC
HCC-2998 colon = test system: HCC-2998 colon
HCT-116 colon = test system: HCT-116 colon
HCT-15 colon = test system: HCT-15 colon
HL-60(TB) leukemia = test system: HL-60(TB) leukemia
HOP-62 NSCLC = test system: HOP-62 NSCLC
HOP-92 NSCLC = test system: HOP-92 NSCLC
HS 578T breast = test system: HS 578T breast
HT29 colon = test system: HT29 colon
IGROV1 ovarian = test system: IGROV1 ovarian
K-562 leukemia = test system: K-562 leukemia
KM12 colon = test system: KM12 colon
LOX IMVI melanoma = test system: LOX IMVI melanoma
M14 melanoma = test system: M14 melanoma
MALME-3M melanoma = test system: MALME-3M melanoma
MCF7 breast = test system: MCF7 breast
MDA-MB-231 breast = test system: MDA-MB-231 breast
MDA-MB-435 melanoma = test system: MDA-MB-435 melanoma
MDA-MB-468 breast = test system: MDA-MB-468 breast
MOLT-4 leukemia = test system: MOLT-4 leukemia
NCI-H226 lung = test system: NCI-H226 lung
NCI-H23 lung = test system: NCI-H23 lung
NCI-H322M lung = test system: NCI-H322M lung
NCI-H460 NSCLC = test system: NCI-H460 NSCLC
NCI-H522 lung = test system: NCI-H522 lung
NCI/ADR-RES ovarian = test system: NCI/ADR-RES ovarian
OVCAR-3 ovarian = test system: OVCAR-3 ovarian
OVCAR-4 ovarian = test system: OVCAR-4 ovarian
OVCAR-5 ovarian = test system: OVCAR-5 ovarian
OVCAR-8 ovarian = test system: OVCAR-8 ovarian
PC-3 prostate = test system: PC-3 prostate
RPMI-8226 leukemia = test system: RPMI-8226 leukemia
RXF 393 renal = test system: RXF 393 renal
SF-268 CNS = test system: SF-268 CNS
SF-295 CNS = test system: SF-295 CNS
SF-539 CNS = test system: SF-539 CNS
SK-MEL-28 melanoma = test system: SK-MEL-28 melanoma
SK-MEL-5 melanoma = test system: SK-MEL-5 melanoma
SK-OV-3 ovarian = test system: SK-OV-3 ovarian
SN12C renal = test system: SN12C renal
SNB-19 CNS = test system: SNB-19 CNS
SNB-75 CNS = test system: SNB-75 CNS
SW-620 colon = test system: SW-620 colon
T-47D breast = test system: T-47D breast
TK-10 renal = test system: TK-10 renal
U251 glioblastoma = test system: U251 glioblastoma
UACC-257 melanoma = test system: UACC-257 melanoma
UACC-62 melanoma = test system: UACC-62 melanoma
UO-31 renal = test system: UO-31 renal

O=C(Nc1ccc(Oc2ccc(F)cc2)cc1)[C@@H]1C[C@@H](Cc2ccc(F)cc2)CN1C(=O)Cn1ccnn1
GI50 ([…]-0 renal): 4.65 µM
TGI (786-0 renal): 16.3 µM
GI50 (A498 renal): 5.24 µM
TGI (A498 renal): 16.5 µM
GI50 (A549 NSCLC): 4.06 µM
TGI (A549 NSCLC): 19.2 µM
GI50 (ACHN renal): 4.88 µM
TGI (ACHN renal): 17.4 µM
GI50 (BT-549 breast): 7.1 µM
TGI (BT-549 breast): 18.7 µM
GI50 (CAKI-1 renal): 12.1 µM
TGI (CAKI-1 renal): 25.1 µM
GI50 (CCRF-CEM leukemia): 2.64 µM
TGI (CCRF-CEM leukemia): 5.92 µM
GI50 (COLO 205 colon): 8.04 µM
TGI (COLO 205 colon): 21.4 µM
GI50 (DU-145 prostate): 10.8 µM
TGI (DU-145 prostate): 26.7 µM
GI50 (EKVX NSCLC): 11 µM
TGI (EKVX NSCLC): 24.9 µM
GI50 (HCC-2998 colon): 4.57 µM
TGI (HCC-2998 colon): 14.6 µM
GI50 (HCT-116 colon): 5.34 µM
TGI (HCT-116 colon): 16.7 µM
GI50 (HCT-15 colon): 6.73 µM
TGI (HCT-15 colon): 21.9 µM
GI50 (HL-60(TB) leukemia): 2.44 µM
TGI (HL-60(TB) leukemia): 4.34 µM
GI50 (HOP-62 NSCLC): 6.4 µM
TGI (HOP-62 NSCLC): 18.2 µM
GI50 (HOP-92 NSCLC): 3.72 µM
TGI (HOP-92 NSCLC): 12.1 µM
GI50 (HS 578T breast): 7.78 µM
TGI (HS 578T breast): 19.6 µM
GI50 (HT29 colon): 3.46 µM
TGI (HT29 colon): 11.7 µM
GI50 (IGROV1 ovarian): 7.92 µM
TGI (IGROV1 ovarian): 20.8 µM
GI50 (K-562 leukemia): 4.7 µM
TGI (K-562 leukemia): 14.9 µM
GI50 (KM12 colon): 8.19 µM
TGI (KM12 colon): 20.8 µM
GI50 (LOX IMVI melanoma): 5.29 µM
TGI (LOX IMVI melanoma): 17.1 µM
GI50 (M14 melanoma): 7.23 µM
TGI (M14 melanoma): 19.8 µM
GI50 (MALME-3M melanoma): 6.92 µM
TGI (MALME-3M melanoma): 19.2 µM
GI50 (MCF7 breast): 4.1 µM
TGI (MCF7 breast): 14.5 µM
GI50 (MDA-MB-231 breast): 13.5 µM
TGI (MDA-MB-231 breast): 27.1 µM
GI50 (MDA-MB-435 melanoma): 13.3 µM
TGI (MDA-MB-435 melanoma): 26.3 µM
GI50 (MDA-MB-468 breast): 6.95 µM
TGI (MDA-MB-468 breast): 18.8 µM
GI50 (MOLT-4 leukemia): 2.02 µM
TGI (MOLT-4 leukemia): 3.78 µM
GI50 (NCI-H226 lung): 9.85 µM
TGI (NCI-H226 lung): 21.7 µM
GI50 (NCI-H23 lung): 15.7 µM
TGI (NCI-H23 lung): 29.9 µM
GI50 (NCI-H322M lung): 14.8 µM
TGI (NCI-H322M lung): 30.1 µM
GI50 (NCI-H460 NSCLC): 5.39 µM
TGI (NCI-H460 NSCLC): 16.8 µM
GI50 (NCI-H522 lung): 6.56 µM
TGI (NCI-H522 lung): 18.8 µM
GI50 (NCI/ADR-RES ovarian): 16.1 µM
TGI (NCI/ADR-RES ovarian): 36.7 µM
GI50 (OVCAR-3 ovarian): 7.5 µM
TGI (OVCAR-3 ovarian): 19.5 µM
GI50 (OVCAR-4 ovarian): 11.9 µM
TGI (OVCAR-4 ovarian): 26.4 µM
GI50 (OVCAR-5 ovarian): 14.7 µM
TGI (OVCAR-5 ovarian): 28.3 µM
GI50 (OVCAR-8 ovarian): 11.1 µM
TGI (OVCAR-8 ovarian): 23.4 µM
GI50 (PC-3 prostate): 4.69 µM
TGI (PC-3 prostate): 15 µM
GI50 (RPMI-8226 leukemia): 3.81 µM
TGI (RPMI-8226 leukemia): 9.88 µM
GI50 (RXF 393 renal): 3.77 µM
TGI (RXF 393 renal): 11.4 µM
GI50 (SF-268 CNS): 2.52 µM
TGI (SF-268 CNS): 7.96 µM
GI50 (SF-295 CNS): 7.16 µM
TGI (SF-295 CNS): 19.5 µM
GI50 (SF-539 CNS): 10.9 µM
TGI (SF-539 CNS): 23 µM
GI50 (SK-MEL-28 melanoma): 15.8 µM
TGI (SK-MEL-28 melanoma): 29.4 µM
GI50 (SK-MEL-5 melanoma): 8.64 µM
TGI (SK-MEL-5 melanoma): 21 µM
GI50 (SK-OV-3 ovarian): 12.7 µM
TGI (SK-OV-3 ovarian): 28.1 µM
GI50 (SN12C renal): 12.9 µM
TGI (SN12C renal): 25.8 µM
GI50 (SNB-19 CNS): 11.6 µM
TGI (SNB-19 CNS): 25.9 µM
GI50 (SNB-75 CNS): 7.44 µM
TGI (SNB-75 CNS): 20.7 µM
GI50 (SW-620 colon): 16.1 µM
TGI (SW-620 colon): 29.8 µM
GI50 (T-47D breast): 3.64 µM
TGI (T-47D breast): 10 µM
GI50 (TK-10 renal): 11.1 µM
TGI (TK-10 renal): 24.2 µM
GI50 (U251 glioblastoma): 4.94 µM
TGI (U251 glioblastoma): 16.3 µM
GI50 (UACC-257 melanoma): 11.6 µM
TGI (UACC-257 melanoma): 23.9 µM
GI50 (UACC-62 melanoma): 13.2 µM
TGI (UACC-62 melanoma): 26.1 µM
GI50 (UO-31 renal): 10.8 µM
TGI (UO-31 renal): 22.9 µM
